Reference: ChEMBL document CHEMBL1127824, “6,6-Disubstituted Hex-5-enoic acid derivatives as combined thromboxane A2 receptor antagonists and synthetase inhibitors” (J Med Chem, 1994)

Tests used:
Thromboxane-A synthase = molecular target: T1, Thromboxane-A synthase (Homo sapiens, UniProt P24557)
T1 sequence (P24557 whole entry): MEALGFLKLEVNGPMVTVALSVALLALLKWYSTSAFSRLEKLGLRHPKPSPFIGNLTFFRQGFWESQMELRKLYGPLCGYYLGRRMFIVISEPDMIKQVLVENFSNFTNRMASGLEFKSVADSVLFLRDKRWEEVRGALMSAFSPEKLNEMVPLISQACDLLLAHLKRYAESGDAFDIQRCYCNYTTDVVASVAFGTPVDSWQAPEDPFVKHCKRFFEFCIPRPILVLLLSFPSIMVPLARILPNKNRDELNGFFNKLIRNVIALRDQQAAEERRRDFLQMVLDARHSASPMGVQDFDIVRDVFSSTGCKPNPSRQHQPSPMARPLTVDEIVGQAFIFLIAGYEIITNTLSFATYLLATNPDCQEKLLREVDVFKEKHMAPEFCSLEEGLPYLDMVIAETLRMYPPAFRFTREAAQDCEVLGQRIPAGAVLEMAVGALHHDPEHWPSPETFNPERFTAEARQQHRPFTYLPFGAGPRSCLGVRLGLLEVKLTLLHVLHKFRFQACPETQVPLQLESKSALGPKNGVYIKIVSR
Description: Inhibition test of thromboxane A2 synthetase in human gel-filtered platelets.

Homo sapiens = species on record: Homo sapiens; experiment: tissue or blood; assay type: functional, organism-based; settings: Plasma
Description: Inhibition of collagen-induced platelet aggregation in human platelet-rich plasma.

Thromboxane A2 receptor = molecular target: T2, Thromboxane A2 receptor (Homo sapiens, UniProt P21731)
T2 sequence (P21731 whole entry): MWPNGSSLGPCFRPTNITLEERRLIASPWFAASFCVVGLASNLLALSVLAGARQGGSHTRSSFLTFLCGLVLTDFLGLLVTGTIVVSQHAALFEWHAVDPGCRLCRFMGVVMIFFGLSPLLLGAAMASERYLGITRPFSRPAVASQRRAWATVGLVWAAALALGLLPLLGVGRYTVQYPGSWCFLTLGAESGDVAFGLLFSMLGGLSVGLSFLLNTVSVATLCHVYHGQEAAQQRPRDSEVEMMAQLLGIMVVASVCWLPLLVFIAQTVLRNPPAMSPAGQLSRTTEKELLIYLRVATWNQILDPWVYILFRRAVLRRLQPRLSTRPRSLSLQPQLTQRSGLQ

SMILES	IC50 (Thromboxane-A synthase) [µM]	EC50 (Homo sapiens) [µM]	IC50 (Thromboxane A2 receptor) [µM]
O=C(O)CCC/C=C(/c1ccc(CCNS(=O)(=O)c2ccc(Cl)cc2)cc1)c1cccnc1	0.49	43	0.38
O=S(=O)(NCCc1ccc(/C(=C\CCCc2nnn[nH]2)c2cccnc2)cc1)c1ccc(Cl)cc1	0.021	9.5	0.012
NC(=O)CN(CCc1ccc(/C(=C\CCCC(=O)O)c2cccnc2)cc1)S(=O)(=O)c1ccc(Cl)cc1	0.005	9.2	0.049
O=C(O)c1ccc(/C=C(\c2ccc(CCNS(=O)(=O)c3ccc(Cl)cc3)cc2)c2cccnc2)cc1	0.027	52	0.13
O=C(O)c1cccc(/C=C(\c2ccc(CCNS(=O)(=O)c3ccc(Cl)cc3)cc2)c2cccnc2)c1	0.004	30	0.1
COC(=O)CCC/C=C(\c1ccc(CCNS(=O)(=O)c2ccc(Cl)cc2)cc1)c1cccnc1	0.033	11	0.036
O=C(O)CCCC(c1ccc(CCNS(=O)(=O)c2ccc(Cl)cc2)cc1)c1cccnc1 (stereo not given)	0.098	12	0.074
O=C(O)CCO/N=C(\c1ccc(CCNS(=O)(=O)c2ccc(Cl)cc2)cc1)c1cccnc1	0.06	4.3	0.026
O=C(O)CCC/C=C(/c1cccnc1)c1ccc2c(c1)CCC(NS(=O)(=O)c1ccc(Cl)cc1)C2 (stereo not given)	0.008	5	0.013
Cc1ccc(S(=O)(=O)NCCc2ccc(/C(=C\C(=O)O)c3cccnc3)cc2)cc1	2.7	> 100	1.2
O=C(O)CCC/C=C(\c1ccc(CCNS(=O)(=O)c2ccccc2)cc1)c1cccnc1	0.005	3.4	0.081
O=C(O)CCC/C=C(\c1ccc(CCN(Cc2ccc(C(=O)O)cc2)S(=O)(=O)c2ccc(Cl)cc2)cc1)c1cccnc1	0.046	> 100	0.028
O=C(O)CCCC/C=C(\c1ccc(CCNS(=O)(=O)c2ccc(Cl)cc2)cc1)c1cccnc1	0.024	1.5	0.019
NC(=O)CCC/C=C(\c1ccc(CCNS(=O)(=O)c2ccc(Cl)cc2)cc1)c1cccnc1	0.039	28	0.094
O=C(O)CCC/C=C(\c1ccc(CCNS(=O)(=O)Cc2ccccc2)cc1)c1cccnc1	0.005	5.3	0.26
O=C(O)CCC/C=C(/c1cccnc1)c1cccc(CCNS(=O)(=O)c2ccc(Cl)cc2)c1	0.004	1.7	0.012
CN(C)C(=O)CCC/C=C(\c1ccc(CCNS(=O)(=O)c2ccc(Cl)cc2)cc1)c1cccnc1	0.044	40	0.3
CC(C)(C)OC(=O)CCC/C=C(\c1ccc(CCNS(=O)(=O)c2ccc(Cl)cc2)cc1)c1cccnc1	0.15	60	0.2
O=C(O)CCC/C=C(/c1cccnc1)c1cccc(CNS(=O)(=O)c2ccc(Cl)cc2)c1	0.005	3.8	0.021
O=C(O)CCC/C=C(\c1ccc(CCN(CC(=O)O)S(=O)(=O)c2ccc(Cl)cc2)cc1)c1cccnc1	0.31	44	0.061
O=C(O)CCC/C=C(/c1cccnc1)c1cccc(NS(=O)(=O)c2ccc(Cl)cc2)c1	0.007	40	0.06
O=C(O)CCC/C=C(\c1ccc(CCNC(=O)c2ccc(Cl)cc2)cc1)c1cccnc1	0.043	55	0.21
O=C(O)CCC/C=C(\c1ccc(CCNS(=O)(=O)c2ccc(Cl)cc2)cc1)c1ccc[n+]([O-])c1	45	> 100	1.1
Cc1ccc(S(=O)(=O)NCCc2ccc(/C(=C\C(=O)NCC(=O)O)c3cccnc3)cc2)cc1	15	> 100	3
O=C(O)CCC/C=C(\c1ccc(CCN(Cc2ccccc2)S(=O)(=O)c2ccc(Cl)cc2)cc1)c1cccnc1	0.043	11	0.062
